Experimental data reported in publication PMC12516390 (ACS Medicinal Chemistry Letters, 2025).
Like-named read-outs stand apart in the source and are kept apart here.

Test system: SARS-CoV-2 (Omicron variant)
Experiment: microbe, parasite or virus in culture
Type: cell-based
[1] = Severe acute respiratory syndrome coronavirus 2, read-out: EC50 (μM) SARS-CoV-2 / VeroE6-GFP
[2] = Severe acute respiratory syndrome coronavirus 2, read-out: EC50 (μM) SARS-CoV-2/VeroE6-GFP
[3] = Severe acute respiratory syndrome coronavirus 2, Vero C1008, read-out: EC50 / activity in SARS-CoV-2 VeroE6 antiviral assay

Row | Structure (SMILES) | EC50 [1] [µM] | EC50 [2] [µM] | EC50 [3] [µM]
1 | COc1cccc(-c2ccc(C(=O)N[C@@H](CC(C)C)C(=O)N[C@H](C#N)C[C@@H]3CCNC3=O)c(Cl)c2)c1 [18n] | 2.18 | 2.18 ± 0.2 | 
2 | COc1ccc(-c2ccc(C(=O)N[C@@H](CC(C)C)C(=O)N[C@H](C#N)C[C@@H]3CCNC3=O)c(Cl)c2)cc1 [18r] | 1.57 |  | 
3 | CC(C)C[C@H](NC(=O)c1ccc(-c2cccc3nn(C)cc23)cc1F)C(=O)N[C@H](C#N)C[C@@H]1CCNC1=O [18a] | 4.18 |  | 
4 | CC(C)C[C@H](NC(=O)c1ccc(-c2ccc3cnn(C)c3c2)cc1Cl)C(=O)N[C@H](C#N)C[C@@H]1CCNC1=O [18q] | 3.02 |  | 
5 | CC(C)C[C@H](NC(=O)c1ccc(-c2ccc3c(cnn3C)c2)cc1F)C(=O)N[C@H](C#N)C[C@@H]1CCNC1=O [18c] | 6.34 |  | 
6 | COc1cccc(-c2ccc(C(=O)N3C[C@H]4[C@@H]([C@H]3C(=O)N[C@H](C#N)C[C@@H]3CCNC3=O)C4(C)C)c(Cl)c2)c1 [22f] |  | 0.331 ± 0.05 | 0.2 to 0.3
7 | COc1cccc(-c2ccc(C(=O)N[C@@H](CC3CCCCC3)C(=O)N[C@H](C#N)C[C@@H]3CCNC3=O)c(Cl)c2)c1 [23d] |  | 8.64 ± 0.3 | 
8 | COc1ccc(-c2ccc(C(=O)N[C@@H](CC3CCCCC3)C(=O)N[C@H](C#N)C[C@@H]3CCNC3=O)c(Cl)c2)cc1 [23c] |  | 2.49 ± 0.2 | 
9 | CC(C)C[C@H](NC(=O)c1ccc(-c2cccc3nn(C)cc23)cc1Cl)C(=O)N[C@H](C#N)C[C@@H]1CCNC1=O [18p] | 11.8 |  | 
10 | COc1cccc(-c2ccc(C(=O)N[C@@H](CC(C)C)C(=O)N[C@H](C#N)C[C@@H]3CCNC3=O)cc2)c1 [6e] |  | 12.5 ± 0.5 | 
11 | COc1ccc(-c2ccc(C(=O)N[C@@H](CC(C)C)C(=O)N[C@H](C#N)C[C@@H]3CCNC3=O)c(C)c2)cc1 [18k] | 5.16 |  | 
12 | CC(C)(C)[C@H](NC(=O)C(F)(F)F)C(=O)N1C[C@H]2[C@@H]([C@H]1C(=O)N[C@H](C#N)C[C@@H]1CCNC1=O)C2(C)C [nirmatrelvir, reference compound] |  | 0.101 ± 0.2 | 0.1 to 0.18
13 | COc1ccc(-c2ccc(C(=O)N[C@@H](CC(C)C)C(=O)N[C@H](C#N)C[C@@H]3CCNC3=O)c(C(F)(F)F)c2)cc1 [18m] | 2.56 |  | 
14 | COc1ccc(-c2ccc(C(=O)N[C@@H](CC(C)C)C(=O)N[C@H](C#N)C[C@@H]3CCNC3=O)c(F)c2)cc1 [18b] | 5.67 |  | 
15 | CC(C)C[C@H](NC(=O)c1ccc(-c2cccc3nn(C)cc23)cc1)C(=O)N[C@H](C#N)C[C@@H]1CCNC1=O [6j] |  | 12.1 ± 0.5 | 
16 | COc1ccc(-c2ccc(C(=O)N[C@@H](CC(C)C)C(=O)N[C@H](C#N)C[C@@H]3CCNC3=O)cc2)cc1OC [6f] |  | 11.9 ± 0.1 | 
17 | COc1ccc(-c2ccc(C(=O)N3C[C@H]4[C@@H]([C@H]3C(=O)N[C@H](C#N)C[C@@H]3CCNC3=O)C4(C)C)c(Cl)c2)cc1 [22e] |  | 0.289 ± 0.05 | 0.2 to 0.3
18 | CC(C)C[C@H](NC(=O)c1ccc(-c2ccc3c(cnn3C)c2)cc1Cl)C(=O)N[C@H](C#N)C[C@@H]1CCNC1=O [18o] | 4.25 |  | 
19 | CC(C)C[C@H](NC(=O)c1ccc(-c2ccc3c(cnn3C)c2)cc1)C(=O)N[C@H](C#N)C[C@@H]1CCNC1=O [6l] |  | 11.1 ± 0.3 | 
